Measurements taken from PubChem BioAssay AID1963967 (Molecular Pharmacology Branch, DTP, NCI, 2024).

System: 855422-203-R-J1-PDC spheroids with HUVEC/MSC, viability
Experiment: Anticancer human tumor 855422-203-R-J1-PDC patient-derived bladder carcinoma cell line growth inhibition [PI3K]
Conditions: for IC50: curve of first compound; for viability, T/C: stronger effect = lower value
Outline: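 Viability of mixed-cell spheroids was determined after exposure to pairwise combinations, one partner being inavolisib, alpelisib, duvelisib or copanlisib. Highest tested concentration matched clinical Cmax where known and 10 microM where not, descending in half-log steps.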
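Further: agents incubated with spheroids for one week before read-out.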
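Wherever viability, T/C is given: 100% = DMSO vehicle-treated control wells.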

CCCS(=O)(=O)Nc1ccc(F)c(C(=O)c2c[nH]c3ncc(-c4ccc(Cl)cc4)cc23)c1F + COc1c(OCCCN2CCOCC2)ccc2c3n(c(=NC(=O)c4cnc(N)nc4)nc12)CCN3
IC50 (second compound 0.00316 µM): 4.39 µM | IC50 (second compound 0.01 µM): 4.84 µM | IC50 (second compound 0.0316 µM): 3.06 µM | IC50 (second compound 0.1 µM): < 0.0316 µM | IC50 (second compound 0.316 µM): < 0.0316 µM | IC50 (second compound 1 µM): < 0.0316 µM | viability, T/C (second compound 0.00316 µM, first compound 0.0316 µM): 97.6% | viability, T/C (second compound 0.00316 µM, first compound 0.1 µM): 83.8% | viability, T/C (second compound 0.00316 µM, first compound 0.316 µM): 87.2% | viability, T/C (second compound 0.00316 µM, first compound 1 µM): 82.5% | viability, T/C (second compound 0.00316 µM, first compound 3.16 µM): 71.3% | viability, T/C (second compound 0.00316 µM, first compound 10 µM): 0.07% | viability, T/C (second compound 0.01 µM, first compound 0.0316 µM): 105% | viability, T/C (second compound 0.01 µM, first compound 0.1 µM): 89.5% | viability, T/C (second compound 0.01 µM, first compound 0.316 µM): 83% | viability, T/C (second compound 0.01 µM, first compound 1 µM): 90.6% | viability, T/C (second compound 0.01 µM, first compound 3.16 µM): 78.9% | viability, T/C (second compound 0.01 µM, first compound 10 µM): 0.31% | viability, T/C (second compound 0.0316 µM, first compound 0.0316 µM): 68.2% | viability, T/C (second compound 0.0316 µM, first compound 0.1 µM): 75.1% | viability, T/C (second compound 0.0316 µM, first compound 0.316 µM): 78.6% | viability, T/C (second compound 0.0316 µM, first compound 1 µM): 67.1% | viability, T/C (second compound 0.0316 µM, first compound 3.16 µM): 49.7% | viability, T/C (second compound 0.0316 µM, first compound 10 µM): 0.93% | viability, T/C (second compound 0.1 µM, first compound 0.0316 µM): 34.5% | viability, T/C (second compound 0.1 µM, first compound 0.1 µM): 35.3% | viability, T/C (second compound 0.1 µM, first compound 0.316 µM): 34.1% | viability, T/C (second compound 0.1 µM, first compound 1 µM): 32.4% | viability, T/C (second compound 0.1 µM, first compound 3.16 µM): 23.9% | viability, T/C (second compound 0.1 µM, first compound 10 µM): 1.58% | viability, T/C (second compound 0.316 µM, first compound 0.0316 µM): 11.9% | viability, T/C (second compound 0.316 µM, first compound 0.1 µM): 11.4% | viability, T/C (second compound 0.316 µM, first compound 0.316 µM): 11.9% | viability, T/C (second compound 0.316 µM, first compound 1 µM): 11.8% | viability, T/C (second compound 0.316 µM, first compound 3.16 µM): 8.59% | viability, T/C (second compound 0.316 µM, first compound 10 µM): 0.86% | viability, T/C (second compound 1 µM, first compound 0.0316 µM): 4.83% | viability, T/C (second compound 1 µM, first compound 0.1 µM): 3.64% | viability, T/C (second compound 1 µM, first compound 0.316 µM): 4.81% | viability, T/C (second compound 1 µM, first compound 1 µM): 6.51% | viability, T/C (second compound 1 µM, first compound 3.16 µM): 3.75% | viability, T/C (second compound 1 µM, first compound 10 µM): 2%
